Among the data in ChEMBL document CHEMBL1159198, “Identification of magnolol and honokiol as anxiolytic agents in extracts of saiboku-to, an oriental herbal medicine” (1998) are Time and Activity values, retold here.

Calls of active or inactive are those of the source. No cut-off for these calls is given here.

Test [1] has as its system Mus musculus. The test is described as follows: Anxiolytic activity in ddY mouse assessed as time spent in open-sided arms at 0.19 mg/kg, po administered once daily for 5 days by elevated plus-maze test. The class given is functional.
The subject of test [2] is Mus musculus. Nature of the test: Anxiolytic activity in ddY mouse assessed as time spent in open-sided arms at 0.19 mg/kg, po administered once daily for 14 days by elevated plus-maze test. Type of test: functional.
The test system of test [3] is Mus musculus. Nature of the test: Anxiolytic activity in ddY mouse assessed as time spent in open-sided arms at 0.19 mg/kg, po administered once daily for 1 day by elevated plus-maze test. The class given is functional.
Test [4] concerns Mus musculus. Nature of the test: Anxiolytic activity in ddY mouse assessed as time spent in open-sided arms at 0.19 mg/kg, po administered once daily for 3 days by elevated plus-maze test. Type of test: functional.
Test [5] has as its system Mus musculus. The test is described as follows: Anxiolytic activity in ddY mouse assessed as time spent in open-sided arms at 0.49 mg/kg, po administered once daily for 7 days by elevated plus-maze test. The class given is functional, organism-based. More on the design: dose 0.49 mg/kg.
The test system of test [6] is Mus musculus. The test is described as follows: Anxiolytic activity in ddY mouse assessed as time spent in open-sided arms at 0.19 mg/kg, po administered once daily for 7 days by elevated plus-maze test. Type of test: functional.
The subject of test [7] is Mus musculus. Nature of the test: Anxiolytic activity in ddY mouse assessed as time spent in open-sided arms at 1 mg/kg, po administered once daily for 1 day by elevated plus-maze test. The class given is functional.

With `C=CCc1ccc(O)c(-c2ccc(O)c(CC=C)c2)c1` [HONOKIOL], the Time in test [1] is 9.1 s; in test [2] it was 12.3 s; in test [3], 3.7 s; in test [4], 4 s; in test [6] it was 10.9 s. The result in test [5] was Active.

In the case of `CN1C(=O)CN=C(c2ccccc2)c2cc(Cl)ccc21` [DIAZEPAM], the Time in test [7] was 22.1 s.

For `C=CCc1ccc(O)c(-c2cc(CC=C)ccc2O)c1`, the outcome in test [5] was Active.
